Measured values from patent US7119256B2, “Gene encoding acetolactate synthase” (priority 2000, dated 2006).

What was measured:
[1] = tested on: mutant ALS protein; assay: Herbicide sensitivity of ALS partially purified from the resistant mutant (acetoin colorimetric ALS activity); assay type: biochemical, rice (Kinmaze)
Description: First, 200 g or more of resistant mutant was prepared by a liquid culture method (no supplementation with bispyribac-sodium), the culture having a composition as shown in Table 1 but without Gelrite. Then, about 150 g of the resistant mutant was homogenized using Hiscotron in a volume of buffer-1 [100 mM potassium phosphate buffer (pH 7.5) containing 20% (v/v) glycerol, 0.5 mM thiamin pyrophosphate (TPP), 10 μM flavin adenine dinucleotide (FAD), 0.5 mM MgCl2, and a volume of polyvinyl polypyrrolidone one-tenth that of tissue volume] 3-fold greater than tissue volume. The homogenate was filtered through nylon gauze, and then centrifuged at 15,000×g for 20 min. Ammonium sulfate was added to the centrifuged supernatant to 50% saturation, and then allowed to stand in ice for approximately 1 hour. The mixture was again centrifuged at 15,000×g for 20 min, and then the precipitated fraction was dissolved in about 30 ml of buffer-2 [10 mM Tris hydrochloric acid buffer (pH 7.5) containing 20% (v/v) glycerol, 0.5 mM TPP and 0.5 mM MgCl2]. […]
Next, the protein concentration of the crude enzyme solution was measured by the Bradford method according to the manual of Bio-Rad Protein Assay. […]
ALS activity resulting from the mutant ALS protein contained in the eluted fractions apportioned into each test tube for apportion was measured as follows. A reaction solution to be used in a measurement reaction was prepared by mixing an eluted fraction to be measured with a solution comprising 20 mM sodium pyruvate, 0.5 mM TPP, 0.5 mM MgCl2, 10 μM FAD and 20 mM potassium phosphate buffer (pH 7.5). […] After the eluted fraction to be measured was added, the measurement reaction was performed at 30° C. for 40 to 60 min. […]
Then, to quantify acetoin contained in the reaction solution, 1 ml of 0.5% (w/v) creatine and 1 ml of 5% (w/v) α-naphthol dissolved in 2.5 N sodium hydroxide was added to the reaction solution, followed by incubation at 37° C. for 10 min. Acetoin was then quantified by color comparison of the absorbance (at 525 nm) of the reaction solution, thereby evaluating ALS activity. […]

[2] = target: T1, W548L mutant ALS (Oryza sativa subsp. japonica, UniProt Q6K2E8, W548L); assay: Herbicide sensitivity of crude ALS with W548L mutation only, 1 mM valine; assay type: biochemical, rice; details: crude enzyme
T1 construct: one type of cDNA containing a full length ALS gene could be obtained from a cDNA library derived from the wild type; made in house; host or cells: E. coli JM 109, pGEX-2T backbone (pGEX-2T-wALS); crude enzyme solution
T1 sequence (Q6K2E8 44-644 W548L): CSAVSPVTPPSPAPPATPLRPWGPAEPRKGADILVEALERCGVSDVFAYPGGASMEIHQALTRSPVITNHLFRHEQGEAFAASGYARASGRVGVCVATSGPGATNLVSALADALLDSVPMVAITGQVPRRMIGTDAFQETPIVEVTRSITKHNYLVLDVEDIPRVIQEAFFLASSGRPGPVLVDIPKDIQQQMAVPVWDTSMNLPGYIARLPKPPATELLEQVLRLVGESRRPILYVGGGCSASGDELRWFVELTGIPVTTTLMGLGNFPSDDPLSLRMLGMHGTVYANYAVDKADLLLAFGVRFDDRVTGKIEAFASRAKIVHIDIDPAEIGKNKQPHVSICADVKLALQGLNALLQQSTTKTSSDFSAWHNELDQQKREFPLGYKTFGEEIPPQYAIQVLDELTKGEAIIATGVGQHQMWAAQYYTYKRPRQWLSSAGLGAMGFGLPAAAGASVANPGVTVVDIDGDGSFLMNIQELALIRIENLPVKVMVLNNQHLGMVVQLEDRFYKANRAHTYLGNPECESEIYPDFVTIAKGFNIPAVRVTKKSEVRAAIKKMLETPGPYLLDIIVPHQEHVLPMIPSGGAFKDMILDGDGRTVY
Description: A plasmid having W548L mutant ALS gene or a plasmid having S627I mutant ALS gene was transformed into E. coli strain JM 109. The colonies obtained from transformation were subjected to liquid culture, expression of GST induction protein was induced in the same manner as in Examples 4 and 5, a crude enzyme solution was prepared, and then herbicide sensitivity of ALS was examined in the presence of 1 mM valine.

[3] = tested on: callus of the wild type rice plant (Nippon-bare); assay: Bispyribac-sodium sensitivity of callus of wild type rice plant; assay type: cell-based
[4] = tested on: rice plant transformed with the mutant ALS gene; assay: Foliar spray of bispyribac-sodium on transformant rice plants, growth survey; assay type: in vivo, rice (Nippon-bare); details: 1 kg of a.i./ha with 0.2% surfactant K, sprayed over leaves and stems; about 40 days after spraying
From the text: Of 80 hygromycin resistant transformant rice plants potted, those which grew normally at the leaf stage 5 were 27 plants to which the mutant ALS gene had been introduced and 46 plants to which the wild type ALS gene had been introduced. Plants containing the wild type ALS gene introduced therein tended to grow healthier than those containing the mutant ALS gene therein. At this time, 4 plants containing the mutant ALS gene introduced therein and 5 plants containing the wild type ALS gene introduced therein were appropriately selected, and 1 kg of a.i./ha bispyribac-sodium salt supplemented with 0.2% surfactant K was sprayed over the leaves and stems. In FIG. 40, the plant length A was about 90 cm.

Structure (SMILES) | RS ratio Resistant mutant: I50 (resistant mutant)/I50 (wild type) [1] | resistance imparted by W548L mutation alone [2] | drug sensitivity of wild type callus [3] | growth of plant containing the mutant ALS gene after spraying [4]
COc1cc(OC)nc(Oc2cccc(Oc3nc(OC)cc(OC)n3)c2C(=O)[O-])n1.[Na+] [Bispyribac-sodium, bispyribac-sodium] | 74.8 | imparted resistance | showed bispyribac-sodium sensitivity | grew almost normally
COc1nc(C)nc(NC(=O)NS(=O)(=O)c2ccccc2Cl)n1 [Chlorsulfuron, chlorsulfuron] | 5.36 | imparted resistance | – | –
